Results from article PMC9402538, “Rational design of a sensitivity-enhanced tracer for discovering efficient APC–Asef inhibitors” (Nature Communications, 2022).
Values joined by “and” are separate entries in the source; they are usually repeats but may differ in a detail not shown here. Equal values may be shown once. “Also recorded” adds a separate entry of the source. Read-outs that look alike come from different tables or passages of the source. Where a SMILES comes first, the peptide text is derived from it. The star is where a group is joined. Benzoyl(4-OMe) = COc1ccc(C(=O)*)cc1

Experiments:
APC WT = biological target: T1, APC WT (Homo sapiens, UniProt P25054); experiment: ITC assay, APC WT; type: binding; settings: 30 °C
T1 sequence (P25054 303-739): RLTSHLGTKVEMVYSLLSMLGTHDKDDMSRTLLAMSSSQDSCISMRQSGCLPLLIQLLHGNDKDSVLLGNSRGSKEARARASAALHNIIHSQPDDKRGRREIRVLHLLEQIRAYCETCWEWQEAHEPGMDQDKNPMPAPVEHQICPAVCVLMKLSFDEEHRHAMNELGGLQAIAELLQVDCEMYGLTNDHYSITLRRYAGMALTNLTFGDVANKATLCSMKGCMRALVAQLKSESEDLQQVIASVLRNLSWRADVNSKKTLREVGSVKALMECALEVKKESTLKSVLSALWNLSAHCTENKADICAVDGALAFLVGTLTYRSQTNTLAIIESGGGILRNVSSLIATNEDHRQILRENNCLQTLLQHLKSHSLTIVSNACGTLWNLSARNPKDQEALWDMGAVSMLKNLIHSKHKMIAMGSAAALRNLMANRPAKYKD
Procedure: ITC experiments were performed using a MicroCal ITC200 calorimeter (Malvern Panalytical Ltd.). APC protein and peptide inhibitors were diluted with buffer containing 50 mM HEPES pH 7.5, 300 mM NaCl and 1 mM EDTA. The cells were loaded with APC proteins at 10–20 μM. All injections were performed using an initial injection of 0.2 μL followed by 19 injections of 2 μL at 100–200 μM. All measurements were carried out at 30 °C. The data were analyzed using a single-site binding model within MicroCal ITC200 analysis software to generate the stoichiometry (N), enthalpy changes (ΔH), entropy changes (ΔS), and the association constant (K) of binding. The changes in free energy (ΔG) were calculated (ΔG = ΔH-TΔS).

His-tagged APC (303–739) = biological target: T2, His-tagged APC (303–739) (Homo sapiens, UniProt P25054); experiment: Surface plasmon resonance (Biacore 8K); type: binding
T2 sequence (P25054 303-739): T1 sequence (P25054 303-739)
Procedure: SPR experiments were performed using a Biacore 8 K system equipped with a CM5 sensor chip. […] The ligand at a 10 μg mL^-1 concentration in 10 mM sodium acetate, pH 5.0, was immobilized on flow cell 2; flow cell 1 was left blank to serve as a reference surface. […] To collect kinetic binding data, a serial concentration of peptide inhibitors in 1× PBS, pH 7.4, was injected over the two flow cells at a flow rate of 30 μL min^-1 and a temperature of 25 °C. The complex was allowed to associate and dissociate for 60–240 and 150–600 s, respectively. The experiments were performed in triplicate. […] The data were fitted to a Langmuir 1:1 binding model using the local Rmax analysis option available in the Biacore insight evaluation software.

SW480 cells = experiment: xCELLigence RTCA-DP migration assay, SW480; type: cell-based; settings: for Cell index: 50 μM
Procedure: Real-time cell migration was evaluated using the xCELLigence RTCA-DP system (Roche). Briefly, SW480 cells were serum-starved for 8 h, digested, and resuspended in serum-free medium. The wells in the upper chamber of CIM plate 16 were preequilibrated with 30 μL serum-free medium for 1 h and filled with 100 μL of 4 × 10^4 serum-starved SW480 cells per well. The wells in the lower chamber of CIM plate 16 were filled with complete medium. […] Cell index values were detected every 15 min throughout the procedure, and the data were collected and analyzed with RTCA software (version 2.3).

[1] = biological target: T3, APC–Asef PPI (HA–APC (303–876), FLAG–Asef (170–632)) (Homo sapiens, UniProt P25054); experiment: Exogenous Co-IP of APC–Asef in drug-treated HEK293T cells; settings: 24 h, TAT + linker and MAI-516 50 μM, MAIT-516 25 and 50 μM
T3 sequence (P25054 303-876): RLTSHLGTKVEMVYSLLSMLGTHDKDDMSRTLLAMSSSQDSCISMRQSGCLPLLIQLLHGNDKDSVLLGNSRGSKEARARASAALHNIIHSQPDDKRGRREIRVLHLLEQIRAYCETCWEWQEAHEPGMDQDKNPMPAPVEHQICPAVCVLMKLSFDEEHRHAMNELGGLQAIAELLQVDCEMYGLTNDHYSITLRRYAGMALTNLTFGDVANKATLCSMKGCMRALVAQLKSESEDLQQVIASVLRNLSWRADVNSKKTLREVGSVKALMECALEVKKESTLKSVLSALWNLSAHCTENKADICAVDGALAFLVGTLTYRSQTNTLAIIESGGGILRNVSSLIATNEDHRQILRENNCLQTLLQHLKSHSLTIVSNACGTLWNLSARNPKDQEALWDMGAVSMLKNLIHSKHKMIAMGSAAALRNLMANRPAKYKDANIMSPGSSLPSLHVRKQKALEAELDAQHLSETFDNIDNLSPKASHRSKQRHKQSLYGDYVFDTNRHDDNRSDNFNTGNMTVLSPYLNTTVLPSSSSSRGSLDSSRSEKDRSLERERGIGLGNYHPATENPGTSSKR
Procedure: For direct western blot analysis, cells were harvested in NP-40 lysis buffer (1% NP-40, 50 mM Tris-HCl at pH 7.5, 150 mM NaCl, 1 mM PMSF, 25 mM NaF, 1 mM Na3VO4) supplemented with cOmplete™ Protease Inhibitor Cocktail (Roche). […] Forty-eight hours after transfection, the cells were washed twice with cold PBS and lysed in NP-40 lysis buffer for 1 h on ice. […] The next day, the samples were centrifuged (7,000 × g for 30 s at 4 °C), and the supernatant was discarded. The beads were washed four times with NP-40 lysis buffer, and the bound proteins were eluted in SDS sample buffer for immunoblotting analysis and detected with anti-FLAG (Sigma; F1804, 1:1,000), anti-HA antibody (Sigma; H9658, 1:20,000) and goat anti-mouse IgG secondary antibody (Signalway antibody; L3032, 1:50,000). […] Twenty-four hours after transfection, peptides and peptidomimetics were added to the culture medium for 24 h. […] For endogenous immunoprecipitation, SW480, DLD1, and RKO cells were seeded in 10-cm cell culture dishes.

## COc1ccc(C(=O)N[C@@H](C)C(=O)NCC(=O)N[C@@H](CCC(=O)O)C(=O)N[C@@H](CO)C(=O)N[C@@H](CC(C)C)C(=O)N[C@@H](Cc2ccc(O)cc2)C(=O)N[C@@H](CCC(=O)O)C(N)=O)cc1 [MAI-516] ({Benzoyl(4-OMe)}-AGESLYE-NH2)
APC WT
  -TΔS: 4.85 kcal/mol
  L/P ratio (number of sites per APC): 0.97
  ΔG: -11.6 kcal/mol
  ΔH: -16.4 kcal/mol
APC WT; ITC
  Kd: 4.4 nM
His-tagged APC (303–739)
  RT (RT = 1/koff): 135 s
His-tagged APC (303–739); 1.5625 nM
  Relative response at equilibrium: 2.9457 RU
His-tagged APC (303–739); 3.125 nM
  Relative response at equilibrium: 3.565 RU
His-tagged APC (303–739); 6.25 nM
  Relative response at equilibrium: 5.67 RU
His-tagged APC (303–739); 12.5 nM
  Relative response at equilibrium: 10.1156 RU
His-tagged APC (303–739); 25 nM
  Relative response at equilibrium: 17.7318 RU
His-tagged APC (303–739); 50 nM
  Relative response at equilibrium: 24.4156 RU
His-tagged APC (303–739); 100 nM
  Relative response at equilibrium: 27.6681 RU
His-tagged APC (303–739); 200 nM
  Relative response at equilibrium: 31.5021 RU
His-tagged APC (303–739); SPR, Repeat 1, read-out: KD Repeat 1
  Kd: 19.9 nM
His-tagged APC (303–739); SPR, Repeat 1, read-out: koff Repeat 1
  koff: 0.00848 s⁻¹
His-tagged APC (303–739); SPR, Repeat 1, read-out: kon Repeat 1
  kon: 427000 M⁻¹ s⁻¹
His-tagged APC (303–739); SPR, Repeat 2, read-out: KD Repeat 2
  Kd: 18.8 nM
His-tagged APC (303–739); SPR, Repeat 2, read-out: koff Repeat 2
  koff: 0.00807 s⁻¹
His-tagged APC (303–739); SPR, Repeat 2, read-out: kon Repeat 2
  kon: 430000 M⁻¹ s⁻¹
His-tagged APC (303–739); SPR, Repeat 3, read-out: KD Repeat 3
  Kd: 16 nM
His-tagged APC (303–739); SPR, Repeat 3, read-out: koff Repeat 3
  koff: 0.00564 s⁻¹
His-tagged APC (303–739); SPR, Repeat 3, read-out: kon Repeat 3
  kon: 353000 M⁻¹ s⁻¹
His-tagged APC (303–739); SPR, mean of 3 repeats, read-out: KD mean
  Kd: 18.2 nM
His-tagged APC (303–739); SPR, mean of 3 repeats, read-out: koff mean
  koff: 0.0074 s⁻¹
His-tagged APC (303–739); SPR, mean of 3 repeats, read-out: kon mean
  kon: 403000 M⁻¹ s⁻¹
His-tagged APC (303–739); SPR, single value printed in the Repeat 1 column
  RT: 135 s
SW480 cells; Time 2.86 h
  Cell index: 0.0858 and 0.0963 and 0.0628 and 0.0638
SW480 cells; Time 3.11 h
  Cell index: 0.0938 and 0.1001 and 0.0718 and 0.0644
SW480 cells; Time 25.38 h
  Cell index: 0.4156 and 0.4495 and 0.4015 and 0.3302
SW480 cells; Time 25.63 h
  Cell index: 0.4241 and 0.453 and 0.4081 and 0.333
SW480 cells; Time 25.88 h
  Cell index: 0.4262 and 0.4606 and 0.4096 and 0.3376
SW480 cells; Time 26.13 h
  Cell index: 0.4312 and 0.4671 and 0.4174 and 0.3414
SW480 cells; Time 26.38 h
  Cell index: 0.4401 and 0.4711 and 0.4224 and 0.35
SW480 cells; Time 26.63 h
  Cell index: 0.4427 and 0.4808 and 0.4256 and 0.3526
SW480 cells; Time 26.88 h
  Cell index: 0.4494 and 0.4864 and 0.4295 and 0.3559
SW480 cells; Time 27.13 h
  Cell index: 0.4537 and 0.4902 and 0.438 and 0.3614
SW480 cells; Time 27.38 h
  Cell index: 0.4561 and 0.4966 and 0.4408 and 0.3637
SW480 cells; Time 27.63 h
  Cell index: 0.459 and 0.5021 and 0.4433 and 0.3665
SW480 cells; Time 27.88 h
  Cell index: 0.4663 and 0.508 and 0.4508 and 0.3739
SW480 cells; Time 28.13 h
  Cell index: 0.4709 and 0.5146 and 0.4572 and 0.3773
SW480 cells; Time 28.38 h
  Cell index: 0.4763 and 0.5221 and 0.4622 and 0.3808
SW480 cells; Time 28.63 h
  Cell index: 0.4818 and 0.5253 and 0.4661 and 0.3892
SW480 cells; Time 28.88 h
  Cell index: 0.484 and 0.5373 and 0.4696 and 0.3897
SW480 cells; Time 29.13 h
  Cell index: 0.4908 and 0.5435 and 0.4752 and 0.3937
SW480 cells; Time 29.38 h
  Cell index: 0.4994 and 0.5497 and 0.4817 and 0.3996
SW480 cells; Time 29.63 h
  Cell index: 0.5038 and 0.5558 and 0.4857 and 0.4052
SW480 cells; Time 29.88 h
  Cell index: 0.5108 and 0.5614 and 0.4912 and 0.4104
SW480 cells; Time 30.13 h
  Cell index: 0.5142 and 0.5705 and 0.496 and 0.4144
SW480 cells; Time 30.38 h
  Cell index: 0.5237 and 0.5775 and 0.5022 and 0.4227
SW480 cells; Time 30.63 h
  Cell index: 0.5252 and 0.5853 and 0.505 and 0.4265
SW480 cells; Time 30.88 h
  Cell index: 0.5376 and 0.5896 and 0.5138 and 0.4332
SW480 cells; SW480, MAI-516
  cell migration (RTCA): dose not inhibit the migration; also recorded: no apparent impact
[1]
  effect on APC–Asef PPI (Co-IP): no effect
